How the values were obtained:
[1] = system: rat liver mitochondria (RLM); experiment: Mitochondrial transmembrane electric potential (ΔΨ) of RLM, safranine fluorescence; format: biochemical
Experimental: (§1) In an embodiment, and as an example, AntiOxCINs and MitoQ toxicity effects on the mitochondrial bioenergetics, namely on RLM ΔΨ and mitochondrial respiration parameters, were measured. The […] represents the main component of the electrochemical gradient generated by mitochondrial respiration and accounts for more than 90% of the total available energy. For mitochondrial respiration assays, glutamate/malate (for complex I) and succinate (for complex II) were used as substrates. In addition, the mitochondrial oxidative phosphorylation coupling index, known as respiratory control ratio (RCR, state 3/state 4 respiration) and ADP/O index (the coupling between ATP synthesis and oxygen consumption) were also calculated. AntiOxCINs and MitoQ were tested at antioxidant-relevant concentrations, with 10 μM being the highest concentration.
(§2) In an embodiment, the evaluation of AntiOxCINs functional mitochondrial toxicity profile was performed in rat liver mitochondria (RLM). […] The protein concentration was determined by the biuret assay using BSA as a standard.
Then, 1 μM FCCP was added at the end of all experiments to depolarize mitochondria. ΔΨ was calculated using a calibration curve obtained when RLM were incubated in a K^+-free reaction medium containing 200 mM sucrose, 1 mM NaH2PO4, 10 mM Tris (pH 7.4) and 10 μM EGTA, supplemented with 0.4 μg valinomicin. […] “Repolarization” corresponded to the recovery of membrane potential after the complete phosphorylation of ADP added. Lag phase reflected the time required to phosphorylate the added ADP. […] Data are means±SEM of five independent experiments.

[2] = Redox properties by differential pulse and cyclic voltammetry; format: physicochemical; settings: for reversibility of the oxidation reaction: cyclic voltammetry, physiological pH; for Ep (redox potential): physiological pH (7.4), voltammetry
Experimental: In an embodiment, and as an example, AntiOxCINs redox properties were evaluated (Table 1). Redox potentials are correlated with the ability of an antioxidant to donate a hydrogen atom and/or an electron to a free radical.
However, for pyrogallol derivatives (AntiOxCIN4, AntiOxCIN5 and AntiOxCIN7), a significant decrease in redox potentials was observed (Ep=0.034-0.057 V) (Table 1).
The voltammograms presented a diffusion peak and an adsorption post-peak at a more anodic potential correspondent to the oxidation of dissolved and adsorbed forms of the compounds, respectively. The oxidation waves can be related to the oxidation process of the pyrogallol moiety. The cyclic voltammograms also show the presence of two overlapped anodic peaks. The anodic peaks appeared to correspond to irreversible processes as any distinct reduction wave was not seen on the cathodic sweep. The existence of the additional phenolic group in the pyrogallol systems, when compared with the catechol ones, seems to influence the stabilization of the semiquinone intermediate and in turn the oxidative mechanism.
In an embodiment, the electrochemical analytical data was obtained using a computer controlled potentiostat Autolab PGSTAT302N (Metrohm Autolab, Utrecht, Netherlands). Generally, cyclic voltammetry (CV) data was acquired at a scan rate of 50 mVs^−1. Differential pulse voltammetry (DPV) results were acquired at a step potential of 4 mV, pulse amplitude of 50 mV and scan rate of 8 mVs^−1. The electrochemical signals were monitored by the General Purpose Electrochemical System (GPES) version 4.9, software package. All electrochemical experiments were performed at room temperature in an electrochemical cell that was placed in a Faraday cage in order to minimize the contribution of background noise to the analytical signal.
In an embodiment, the process of evaluation of AntiOxCINs redox properties was conducted as follows: stock solutions of each compound (10 mM) were prepared by dissolving the appropriate amount in ethanol. The voltammetric working solutions were prepared in the electrochemical cell, at a final concentration of 0.1 mM. The […] supporting electrolyte was prepared by diluting […] to 100 mL. Voltammetric data was acquired in a three-electrode system consisting of a glassy carbon electrode (GCE, d=2 mm) as working electrode, a counter electrode of platinum wire and a saturated Ag/AgCl reference electrode. In an embodiment, the evaluation of AntiOxCINs lipophilic properties was performed as follows: the electrochemical cell was a four-electrode system with arrays of micro liquid-liquid interfaces (μlTIES) containing two Ag/AgCl reference electrodes and two counter electrodes of Pt, one in each phase. The microporous membrane was sealed with a fluorosilicone sealant (Dow Corning 730) onto a glass cylinder which was filled with 4.0 mL of the aqueous phase, where the aliquots of AntiOxCINs solutions were added. The membrane was then immersed into the organic phase contained in the cell. The organic phase reference solution (a 2 mM BTPPACI+2 mM NaCl aqueous solution) was mechanically stabilized The aqueous supporting electrolyte solution was a Tris-HCl buffer 10 mM pH 7.0.

[3] = system: rat liver mitochondria (RLM); experiment: Mitochondrial respiration of isolated RLM (Clark-type oxygen electrode); format: biochemical; settings: for effect on state 3 respiration: all tested concentrations (2.5-10 μM), FIG. 6B-H
Experimental: as §1, §2
In an embodiment, the evaluation of AntiOxCINs effect on mitochondrial respiration was performed as follows: the respiration of isolated RLM was evaluated polarographically with a Clark-type oxygen electrode, connected to a suitable recorder in a 1 mL thermostated water-jacketed chamber with magnetic stirring, at 37° C.^1. […] Increasing concentrations of AntiOxCINs (2.5-10 μM) were added to the reaction medium containing respiratory substrates glutamate/malate (10 mM and 5 mM respectively) or succinate (5 mM) and RLM (1 mg) and allowed to incubate for a 5 min period prior to the assay. State 2 was considered as the respiration during the 5 min incubation time with AntiOxCINs. […] State 4 was determined after ADP phosphorylation finished. Subsequent addition of oligomycin (2 μg/ml) inhibited ATP-synthase and originated the oligomycin-inhibition respiration state. Finally, 1 μM FCCP was added to induce uncoupled respiration.

| SMILES | ADP-induced depolarization (ΔΨ in - mV) ([1]; glutamate/malate, 2.5 μM) | Lag Phase ([1]; glutamate/malate, 2.5 μM) | Maximum potential (ΔΨ in - mV) ([1]; glutamate/malate, 2.5 μM) | Repolarization Potential (ΔΨ in - mV) ([1]; glutamate/malate, 2.5 μM) | ADP-induced depolarization (ΔΨ in - mV) ([1]; glutamate/malate, 5 μM) | Lag Phase ([1]; glutamate/malate, 5 μM) | Maximum potential (ΔΨ in - mV) ([1]; glutamate/malate, 5 μM) | Repolarization Potential (ΔΨ in - mV) ([1]; glutamate/malate, 5 μM) | ADP-induced depolarization (ΔΨ in - mV) ([1]; glutamate/malate, 10 μM) | Lag Phase ([1]; glutamate/malate, 10 μM) | Maximum potential (ΔΨ in - mV) ([1]; glutamate/malate, 10 μM) | Repolarization Potential (ΔΨ in - mV) ([1]; glutamate/malate, 10 μM) | ADP-induced depolarization (ΔΨ in - mV) ([1]; succinate, 2.5 μM) | Lag Phase ([1]; succinate, 2.5 μM) | Maximum potential (ΔΨ in - mV) ([1]; succinate, 2.5 μM) | Repolarization Potential (ΔΨ in - mV) ([1]; succinate, 2.5 μM) | ADP-induced depolarization (ΔΨ in - mV) ([1]; succinate, 5 μM) | Lag Phase ([1]; succinate, 5 μM) | Maximum potential (ΔΨ in - mV) ([1]; succinate, 5 μM) | Repolarization Potential (ΔΨ in - mV) ([1]; succinate, 5 μM) | also measured |
| --- | --- | --- | --- | --- | --- | --- | --- | --- | --- | --- | --- | --- | --- | --- | --- | --- | --- | --- | --- | --- | --- |
| CS(=O)(=O)[O-].O=C(/C=C/c1cc(O)c(O)c(O)c1)NCCCCCC[P+](c1ccccc1)(c1ccccc1)c1ccccc1 [AntiOxCIN4, (E)-(6-(3-(3,4,5-trihydroxyphenyl)prop-2-enamido)hexyl)triphenylphosphonium methanesulfonate] | 188.5 ± 9.6 mV | 84.7 ± 7.0 s | 214.6 ± 10.9 mV | 211.8 ± 10.1 mV | 193.8 ± 11.8 mV | 81.7 ± 6.7 s | 216.4 ± 13.1 mV | 216.1 ± 12.7 mV | 192.7 ± 14.4 mV | 65.7 ± 15.1 s | 216.8 ± 15.7 mV | 207.7 ± 15.6 mV | 171.2 ± 3.7 mV | 95.6 ± 7.5 s | 192.0 ± 4.0 mV | 192.7 ± 5.4 mV | 176.2 ± 5.0 mV | 97.8 ± 18.8 s | 197.6 ± 6.1 mV | 195.4 ± 8.2 mV | ADP-induced depolarization (ΔΨ in - mV) ([1]; succinate, 10 μM): 170.3 ± 5.2 mV; Lag Phase ([1]; succinate, 10 μM): 101.4 ± 23.75 s; Maximum potential (ΔΨ in - mV) ([1]; succinate, 10 μM): 187.4 ± 8.5 mV; Repolarization Potential (ΔΨ in - mV) ([1]; succinate, 10 μM): 183.5 ± 10.5 mV; reversibility of the oxidation reaction [2]: irreversible oxidation reaction; Ep (redox potential) ([2]; listed as AntiOxClN4, methanesulfonate): 0.034 V; effect on state 3 respiration [3]: decrease; ADP/O ([3]; glutamate/malate, 2.5 μM): 2.4 ± 0.1; RCR (respiratory control ratio, state 3/state 4) ([3]; glutamate/malate, 2.5 μM): 5.3 ± 0.8; ADP/O ([3]; glutamate/malate, 5 μM): 2.2 ± 0.1; RCR (respiratory control ratio, state 3/state 4) ([3]; glutamate/malate, 5 μM): 4.3 ± 0.7; ADP/O ([3]; glutamate/malate, 10 μM): 2.2 ± 0.1; RCR (respiratory control ratio, state 3/state 4) ([3]; glutamate/malate, 10 μM): 3.5 ± 0.5; ADP/O ([3]; succinate, 2.5 μM): 1.4 ± 0.1; RCR (respiratory control ratio, state 3/state 4) ([3]; succinate, 2.5 μM): 3.4 ± 0.3; ADP/O ([3]; succinate, 5 μM): 1.3 ± 0.1; RCR (respiratory control ratio, state 3/state 4) ([3]; succinate, 5 μM): 3.0 ± 0.34; ADP/O ([3]; succinate, 10 μM): 1.3 ± 0.02; RCR (respiratory control ratio, state 3/state 4) ([3]; succinate, 10 μM): 2.7 ± 0.4 |
| CS(=O)(=O)[O-].O=C(/C=C/c1cc(O)c(O)c(O)c1)NCCCCCCCC[P+](c1ccccc1)(c1ccccc1)c1ccccc1 [AntiOxCIN5, (E)-(8-(3-(3,4,5-trihydroxyphenyl)acrylamido)octyl)triphenylphosphonium methanesulfonate] | 207.5 ± 6.1 mV | 74.4 ± 10.7 s | 249.8 ± 5.4 mV | 244.7 ± 5.9 mV | 207.5 ± 5.6 mV | 69.8 ± 13.3 s | 244.7 ± 7.0 mV | 236.5 ± 6.8 mV | 184.6 ± 18.7 mV | 53.2 ± 7.6 s | 215.1 ± 22.3 mV | 199.9 ± 26.0 mV | 177.2 ± 7.7 mV | 80.2 ± 11.8 s | 196.2 ± 8.6 mV | 190.6 ± 7.8 mV | 173.6 ± 6.8 mV | 67.2 ± 13.4 s | 190.1 ± 6.8 mV | 184.0 ± 7.1 mV | initial slight hyperpolarization ([1]; 2.5 μM): 25 mV; ADP-induced depolarization (ΔΨ in - mV) ([1]; succinate, 10 μM): 162.2 ± 7.7 mV; Lag Phase ([1]; succinate, 10 μM): 58.4 ± 10.2 s; Maximum potential (ΔΨ in - mV) ([1]; succinate, 10 μM): 180.8 ± 4.0 mV; Repolarization Potential (ΔΨ in - mV) ([1]; succinate, 10 μM): 168.4 ± 9.3 mV; reversibility of the oxidation reaction [2]: irreversible oxidation reaction; Ep (redox potential) ([2]; listed as AntiOxClN5, methanesulfonate): 0.046 V; effect on state 3 respiration [3]: increase; ADP/O ([3]; glutamate/malate, 2.5 μM): 2.4 ± 0.1; RCR (respiratory control ratio, state 3/state 4) ([3]; glutamate/malate, 2.5 μM): 3.7 ± 0.4; ADP/O ([3]; glutamate/malate, 5 μM): 2.5 ± 0.1; RCR (respiratory control ratio, state 3/state 4) ([3]; glutamate/malate, 5 μM): 3.7 ± 0.4; ADP/O ([3]; glutamate/malate, 10 μM): 2.5 ± 0.1; RCR (respiratory control ratio, state 3/state 4) ([3]; glutamate/malate, 10 μM): 3.2 ± 0.1; ADP/O ([3]; succinate, 2.5 μM): 1.6 ± 0.1; RCR (respiratory control ratio, state 3/state 4) ([3]; succinate, 2.5 μM): 4.2 ± 0.4; ADP/O ([3]; succinate, 5 μM): 1.5 ± 0.1; RCR (respiratory control ratio, state 3/state 4) ([3]; succinate, 5 μM): 4.4 ± 0.8; ADP/O ([3]; succinate, 10 μM): 1.6 ± 0.1; RCR (respiratory control ratio, state 3/state 4) ([3]; succinate, 10 μM): 4.0 ± 0.8 |

From patent US10913757B2, “Hydroxycinnamic derivatives, methods and uses thereof” (UNIVERSIDADE DO PORTO, priority 2016, dated 2021)
